In patent US20070166547A1, “Use of a layer consisting of hydrophobic linear, or two-dimensional polycyclic aromatics as a barrier layer or an encapsulation and electric components constructed with a layer of this type and comprising organic polymers” (priority 2003, published 2007):
Read-outs that look alike come from different tables or passages of the source.

Legend:
plasma hemostasis = assay: Autocoagulation test (coagulating activity A) after intravenous administration; type: in vivo, rabbit; conditions: for effect on the coagulation activity, autocoagulation test (overall): doses 15.0, 30.0, 60.0 mg/kg
Procedure: The investigations were performed on 72 rabbits of the “Chinchilla” breed with a mass of 2.5±0.3 kg, who were administered which solutions of compounds 2, 15, 21, 37 in doses of 15, 30 and 60 mg/kg intravenously. The experiments included the thrombin-test (series No. 7300) and the coagulability-test (series No. 5000) purchased from the scientific-and-production association (SPA) “Renam”, thromboplastin (series No. 240600) and calcium chloride purchased from the SPA “MedioLab”
The static parameters of the blood and plasma coagulation (partial activated thromboplastin time, thrombin time, maximum coagulation activity (test for auto coagulation) were determined using the Behnk Electronic coagulometer (Germany). The operating principle of this instrument is based on the fact that the formed blood clot breaks the contacts of the pulse counter in the flask-pin circuit, said pin permanently oscillating in a vertical plane. The moment of formation of the clot is registered by stopping the stop watch hand.
The measurements were effected at a constant temperature of 37° C. maintained by a temperature control unit.
Compounds 2, 15, 21, 37 according to the invention at a concentration of 15, 30 and 60 mg/kg were intravenously administered to the above experimental animals and their blood samples were taken off 15, 30, 60 and 120 minutes after the administration.
Added to 0.2 ml of plasma obtained by centrifuging citrate blood at 1500 rev/min within 10 minutes was a glycosilate-calcium mixture (2.0 ml 0.222% CaCl2+0.1 ml of investigated citrate blood) 4, 6, 8, 10 minutes after the preparation of this mixture and the time of coagulation in the sample was determined.
The obtained results in seconds were translated in factors of coagulating activity A in percent, which specify the state of both the coagulating and anticoagulating parts of the blood coagulating system.

[1] = rat, in vivo
Procedure: (§1) The experiments were conducted on inbred rats. The experimental animals were selected in groups by a method of random sampling taking into account the body mass as a determining index; 24 males or 24 females for one preparation from compounds 2, 15, 23, 34, 37 investigated in one dose.
(§2) Two doses of preparations used in the experiments: 50 mg/kg and 500 mg/kg. Before the administration, the suppositories were softened by heating in a glass water bath at a temperature of 38-39° C., the soft mass was collected in tuberculin syringe in a volume of 1 ml, a needle with oliva was attached to the syringe, and the preparatory mass was introduced into the rectum of the animal for a depth of 1.5-2.0 cm. The animals of the control group were administered with sterile medical liquid paraffin in a volume corresponding to the volume of the investigated suppository. A complete course of administration of drugs to the animals was two months. A complex of laboratory diagnostic investigations was carried out one month after the beginning of the administration of the preparation to the animal—in a middle of the course (8 animals), two months after ending the course (8 animals) and three months after ending the recovery period of one month (8 animals). The mass of the body of the rats in the first month of administration of the preparation was determined weekly, and then once in two weeks. On the basis of the dynamics of an index of the mass of the animal body, the volume of preparation being administered was corrected taking into account the test dose.

[2] = Chronic toxicity, rectal suppositories: indexes of peripheral blood; conditions: male rats; for Basophiles / Juveniles: 1 month/2 months (one value given)
Procedure: as §1, §2

[3] = suppositories 50 mg/kg, 1 month
[4] = suppositories 50 mg/kg, 2 months
[5] = suppositories 500 mg/kg, 1 month
[6] = suppositories 500 mg/kg, 2 months

In the case of Nc1cccc2c(=O)[nH][nH]c(=O)c12.[Na] [Compound 15, sodium salt of 5-amino-benzo[d]-3H-pyridazine-1,4-dione], the “A, % after 15 minutes (coagulating activity)” value (from here on “A, % after 15 minutes”) (plasma hemostasis; dose 15.0 mg/kg intravenously) is reported as 82.3%, the “A, % after 30 minutes (coagulating activity)” value (“A, % after 30 minutes” below) (plasma hemostasis; dose 15.0 mg/kg intravenously) is reported as 103.0% and the “A, % after 60 minutes (coagulating activity)” value (shortened to “A, % after 60 minutes”) (plasma hemostasis; dose 15.0 mg/kg intravenously) is reported as 89.0%. The “A, % after 120 minutes (coagulating activity)” value (“A, % after 120 minutes” for short) (plasma hemostasis; dose 15.0 mg/kg intravenously) was 101.2%, the “A, % after 15 minutes” value (plasma hemostasis; dose 30.0 mg/kg intravenously) was 100.3% and the “A, % after 30 minutes” value (plasma hemostasis; dose 30.0 mg/kg intravenously) was 68.4%. The “A, % after 60 minutes” value (plasma hemostasis; dose 30.0 mg/kg intravenously) was 106.6%, the “A, % after 120 minutes” value (plasma hemostasis; dose 30.0 mg/kg intravenously) was 70.6% and the “A, % after 15 minutes” value (plasma hemostasis; dose 60.0 mg/kg intravenously) was 74.4%. The “A, % after 30 minutes” value (plasma hemostasis; dose 60.0 mg/kg intravenously) was 63.2%, the “A, % after 60 minutes” value (plasma hemostasis; dose 60.0 mg/kg intravenously) was 64.4% and the “A, % after 120 minutes” value (plasma hemostasis; dose 60.0 mg/kg intravenously) was 66.5%. The “effect on the coagulation activity, autocoagulation test (overall)” value (“effect on the coagulation activity” for short) (plasma hemostasis) was “have no effect on the coagulation activity”, the “Bilirubin (index of urine)” value ([1]; 50 mg/kg) was under 5 Mkmol/l and the “Glucose (index of urine)” value ([1]; 50 mg/kg) was under 6 mmol/L. The “Ketone bodies (index of urine)” value ([1]; 50 mg/kg) was under 1 mmol/L, the “Potassium (index of urine)” value ([1]; 50 mg/kg) was 5.28 ± 1.5 g/L and the “Protein (index of urine)” value ([1]; 50 mg/kg) was 0.71 ± 0.274 g/L. The “Sodium (index of urine)” value ([1]; 50 mg/kg) was 1.2 ± 0.4 g/L, the “Urea (index of urine)” value ([1]; 50 mg/kg) was 413 ± 128 mmol/L and the “Urobilinogen (index of urine)” value ([1]; 50 mg/kg) was under 17 Mkmol/l. For the same compound, the “pH (index of urine)” value ([1]; 50 mg/kg) was 6.3 ± 0.4, the “Bilirubin (index of urine)” value ([1]; 500 mg/kg) was under 5 Mkmol/l and the “Glucose (index of urine)” value ([1]; 500 mg/kg) was under 6 mmol/L. The “Ketone bodies (index of urine)” value ([1]; 500 mg/kg) was under 1 mmol/L, the “Potassium (index of urine)” value ([1]; 500 mg/kg) was 6.13 ± 1.6 g/L and the “Protein (index of urine)” value ([1]; 500 mg/kg) was 0.87 ± 0.24 g/L. For the same compound, the “Sodium (index of urine)” value ([1]; 500 mg/kg) was 0.64 ± 0.4 g/L, the “Urea (index of urine)” value ([1]; 500 mg/kg) was 485 ± 131 mmol/L and the “Urobilinogen (index of urine)” value ([1]; 500 mg/kg) was under 17 Mkmol/l. The “pH (index of urine)” value ([1]; 500 mg/kg) was 6.2 ± 0.3.
For Nc1cnc2c(=O)n([C@@H]3O[C@H](CO)[C@@H](O)[C@H]3O)[nH]c(=O)c2n1.[Na] [Compound 21, sodium salt of 3-amino-7-(β-D-ribofuranosile)pyrazine[2,3-d]-6H-pyridazine-5,8-dione], the “A, % after 15 minutes” value (plasma hemostasis; dose 15.0 mg/kg intravenously) was 81.4%, the “A, % after 30 minutes” value (plasma hemostasis; dose 15.0 mg/kg intravenously) was 101.3% and the “A, % after 60 minutes” value (plasma hemostasis; dose 15.0 mg/kg intravenously) was 86.5%. The “A, % after 120 minutes” value (plasma hemostasis; dose 15.0 mg/kg intravenously) was 97.4%, the “A, % after 15 minutes” value (plasma hemostasis; dose 30.0 mg/kg intravenously) was 97.2% and the “A, % after 30 minutes” value (plasma hemostasis; dose 30.0 mg/kg intravenously) was 69.1%. The “A, % after 60 minutes” value (plasma hemostasis; dose 30.0 mg/kg intravenously) was 103.7%, the “A, % after 120 minutes” value (plasma hemostasis; dose 30.0 mg/kg intravenously) was 71.0% and the “A, % after 15 minutes” value (plasma hemostasis; dose 60.0 mg/kg intravenously) was 71.9%. The “A, % after 30 minutes” value (plasma hemostasis; dose 60.0 mg/kg intravenously) was 62.1%, the “A, % after 60 minutes” value (plasma hemostasis; dose 60.0 mg/kg intravenously) was 63.7% and the “A, % after 120 minutes” value (plasma hemostasis; dose 60.0 mg/kg intravenously) was 66.2%. The “effect on the coagulation activity” value (plasma hemostasis) was “have no effect on the coagulation activity”.
With O=c1[nH]n([C@@H]2O[C@H](CO)[C@@H](O)[C@H]2O)c(=O)c2nc(O)cnc12.[Na].[Na] [Compound 23, disodium salt of 2-hydroxy-7-(β-D-ribofuranosile)pyrazine[2,3-Cl]-6H-pyridazine-5,8-dione] the “Average volume of erythrocytes” value [2, 3] was 82.7 ± 1.6 Mkm^3, the “Coagulation, time” value [2, 3] was 150 ± 15 s and the Eosinophiles [2, 3] was 3.6 ± 0.5%. For the same compound, the Erythrocytes [2, 3] was 5.7 ± 0.1 mln/mm^3, the Haematocrite [2, 3] was 47.7 ± 1.2% and the Hemoglobin [2, 3] was 10.7 ± 0.1 mmol/L. For the same compound, the Leukocyte [2, 3] was 15.5 ± 1.1 thousand/mm^3, the REE [2, 3] was 1.7 ± 0.8 mm/h and the Reticulocytes [2, 3] was 2.7 ± 0.3%. For the same compound, the Stab neutrophil [2, 3] was 1.1 ± 0.5%, the Thrombocytes [2, 3] was 659 ± 18 and the Basophiles ([2]; suppositories 50 mg/kg) was 0%. The Juveniles ([2]; suppositories 50 mg/kg) was 0%, the “Average volume of erythrocytes” value [2, 4] was 77.5 ± 1.7 Mkm^3 and the “Coagulation, time” value [2, 4] was 313 ± 17 s. For the same compound, the Eosinophiles [2, 4] was 4.0 ± 0.7%, the Erythrocytes [2, 4] was 6.0 ± 0.2 mln/mm^3 and the Haematocrite [2, 4] was 46.5 ± 1.3%. It also gave a Hemoglobin [2, 4] of 11.0 ± 0.1 mmol/L, a Leukocyte [2, 4] of 17.6 ± 1.2 thousand/mm^3 and an REE [2, 4] of 1.5 ± 0.1 mm/h. It also gave a Reticulocytes [2, 4] of 2.8 ± 0.1%, a Stab neutrophil [2, 4] of 1.6 ± 0.2% and a Thrombocytes [2, 4] of 586 ± 28. The “Average volume of erythrocytes” value [2, 5] was 83.5 ± 1.7 Mkm^3, the “Coagulation, time” value [2, 5] was 156 ± 11 s and the Eosinophiles [2, 5] was 3.3 ± 0.7%. The Erythrocytes [2, 5] was 5.7 ± 0.2 mln/mm^3, the Haematocrite [2, 5] was 47.9 ± 1.1% and the Hemoglobin [2, 5] was 10.7 ± 0.2 mmol/L. The Leukocyte [2, 5] was 16.4 ± 1.1 thousand/mm^3, the REE [2, 5] was 2.0 ± 0.3 mm/h and the Reticulocytes [2, 5] was 3.1 ± 0.1%. It also gave a Stab neutrophil [2, 5] of 1.0 ± 0.3%, a Thrombocytes [2, 5] of 678 ± 18 and a Basophiles ([2]; suppositories 500 mg/kg) of 0%. The Juveniles ([2]; suppositories 500 mg/kg) was 0%, the “Average volume of erythrocytes” value [2, 6] was 82.1 ± 1.4 Mkm^3 and the “Coagulation, time” value [2, 6] was 3171 ± 12 s. It also gave an Eosinophiles [2, 6] of 3.8 ± 1.3%, an Erythrocytes [2, 6] of 6.4 ± 0.2 mln/mm^3 and a Haematocrite [2, 6] of 49.4 ± 1.9%. The Hemoglobin [2, 6] was 12.3 ± 0.3 mmol/L, the Leukocyte [2, 6] was 20.1 ± 1.7 thousand/mm^3 and the REE [2, 6] was 1.7 ± 0.3 mm/h. It also gave a Reticulocytes [2, 6] of 3.4 ± 0.1%, a Stab neutrophil [2, 6] of 1.6 ± 0.2% and a Thrombocytes [2, 6] of 628 ± 23.
In the case of O=c1[nH][nH]c(=O)c2c(Br)ncnc12.[K] [Compound 37, potassium salt of 4-bromine-pyrimido[4,5-D]-6H-pyridazine-5,8-dione], the “A, % after 15 minutes” value (plasma hemostasis; dose 15.0 mg/kg intravenously) is reported as 82.1%, the “A, % after 30 minutes” value (plasma hemostasis; dose 15.0 mg/kg intravenously) is reported as 102.8% and the “A, % after 60 minutes” value (plasma hemostasis; dose 15.0 mg/kg intravenously) is reported as 88.7%. For the same compound, the “A, % after 120 minutes” value (plasma hemostasis; dose 15.0 mg/kg intravenously) was 100.6%, the “A, % after 15 minutes” value (plasma hemostasis; dose 30.0 mg/kg intravenously) was 99.8% and the “A, % after 30 minutes” value (plasma hemostasis; dose 30.0 mg/kg intravenously) was 68.3%. For the same compound, the “A, % after 60 minutes” value (plasma hemostasis; dose 30.0 mg/kg intravenously) was 105.8%, the “A, % after 120 minutes” value (plasma hemostasis; dose 30.0 mg/kg intravenously) was 70.4% and the “A, % after 15 minutes” value (plasma hemostasis; dose 60.0 mg/kg intravenously) was 74.3%. For the same compound, the “A, % after 30 minutes” value (plasma hemostasis; dose 60.0 mg/kg intravenously) was 63.0%, the “A, % after 60 minutes” value (plasma hemostasis; dose 60.0 mg/kg intravenously) was 64.2% and the “A, % after 120 minutes” value (plasma hemostasis; dose 60.0 mg/kg intravenously) was 66.3%. For the same compound, the “effect on the coagulation activity” value (plasma hemostasis) was “have no effect on the coagulation activity”, the “Bilirubin (index of urine)” value ([1]; 50 mg/kg) was under 5 Mkmol/l and the “Glucose (index of urine)” value ([1]; 50 mg/kg) was under 5 mmol/L. The “Ketone bodies (index of urine)” value ([1]; 50 mg/kg) was under 1 mmol/L, the “Potassium (index of urine)” value ([1]; 50 mg/kg) was 6.12 ± 1.4 g/L and the “Protein (index of urine)” value ([1]; 50 mg/kg) was 0.70 ± 0.19 g/L. The “Sodium (index of urine)” value ([1]; 50 mg/kg) was 1.4 ± 0.2 g/L, the “Urea (index of urine)” value ([1]; 50 mg/kg) was 427 ± 137 mmol/L and the “Urobilinogen (index of urine)” value ([1]; 50 mg/kg) was under 15 Mkmol/l. For the same compound, the “pH (index of urine)” value ([1]; 50 mg/kg) was 6.4 ± 0.4, the “Bilirubin (index of urine)” value ([1]; 500 mg/kg) was under 5 Mkmol/l and the “Glucose (index of urine)” value ([1]; 500 mg/kg) was under 5 mmol/L. The “Ketone bodies (index of urine)” value ([1]; 500 mg/kg) was under 1 mmol/L, the “Potassium (index of urine)” value ([1]; 500 mg/kg) was 6.44 ± 1.3 g/L and the “Protein (index of urine)” value ([1]; 500 mg/kg) was 0.72 ± 0.14 g/L. For the same compound, the “Sodium (index of urine)” value ([1]; 500 mg/kg) was 0.88 ± 0.4 g/L, the “Urea (index of urine)” value ([1]; 500 mg/kg) was 489 ± 152 mmol/L and the “Urobilinogen (index of urine)” value ([1]; 500 mg/kg) was under 15 Mkmol/l. For the same compound, the “pH (index of urine)” value ([1]; 500 mg/kg) was 6.2 ± 0.3.
